Measured values as given in ChEMBL document CHEMBL1201862, “PubChem BioAssay data set” (2004).
Activity calls are given as the source filed them.

Key:
[1] = target: T1, Corticotropin-releasing factor receptor 2/Corticotropin-releasing factor-binding protein (Homo sapiens, UniProt P24387+Q13324); test: activators of CRF receptor 2 with binding protein – uHTS hits, confirmation (AID 602473); type: functional; conditions: read-out: EC50_Mean
T1 sequence (Q13324 whole entry): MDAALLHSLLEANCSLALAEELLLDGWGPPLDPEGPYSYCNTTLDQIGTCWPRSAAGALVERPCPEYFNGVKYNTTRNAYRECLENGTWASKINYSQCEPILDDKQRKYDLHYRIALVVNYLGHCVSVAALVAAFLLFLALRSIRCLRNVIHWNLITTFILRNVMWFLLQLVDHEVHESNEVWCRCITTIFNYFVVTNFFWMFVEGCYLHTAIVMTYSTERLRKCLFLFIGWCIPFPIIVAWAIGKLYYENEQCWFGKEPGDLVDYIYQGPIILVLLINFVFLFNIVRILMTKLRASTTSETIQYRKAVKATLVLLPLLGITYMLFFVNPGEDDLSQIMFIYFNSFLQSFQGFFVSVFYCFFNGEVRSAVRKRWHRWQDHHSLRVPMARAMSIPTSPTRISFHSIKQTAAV
T1 sequence (P24387 whole entry): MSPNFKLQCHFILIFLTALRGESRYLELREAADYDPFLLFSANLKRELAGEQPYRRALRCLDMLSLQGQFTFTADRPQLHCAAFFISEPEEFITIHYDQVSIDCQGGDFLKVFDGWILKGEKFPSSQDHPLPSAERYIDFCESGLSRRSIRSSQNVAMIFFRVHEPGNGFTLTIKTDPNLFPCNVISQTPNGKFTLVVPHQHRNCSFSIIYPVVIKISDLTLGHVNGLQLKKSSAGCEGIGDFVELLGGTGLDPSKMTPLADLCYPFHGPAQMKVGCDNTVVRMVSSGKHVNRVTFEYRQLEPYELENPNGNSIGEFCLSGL

Kallikrein-7 = Kallikrein-7 (Homo sapiens, UniProt P49862); test: Fluorescence Intensity-based biochemical primary high throughput dose response assay to identify activators of kallikrein-7 (K7) zymogen.
Protein Tat = target: T2, Protein Tat (Human immunodeficiency virus type 1 group M subtype B (isolate HXB2)(HIV-1), UniProt P04608); type: functional;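 further: tat binding to TAR RNA read out by fluorescence polarization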
T2 sequence (P04608 whole entry): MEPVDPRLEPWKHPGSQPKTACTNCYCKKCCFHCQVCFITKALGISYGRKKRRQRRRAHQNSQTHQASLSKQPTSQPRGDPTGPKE

[2] = cytotoxicity toward NIH3T3 fibroblasts, dose response, counter-screen, cell-based, ATP luminescence, mouse fibroblasts (AID 2010); type: functional;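 further: cells exposed to compound for about 90 hours before reading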
[3] = Luminescence Cell-Based Dose Response to Identify Activators of 5'UTR Stem-Loop Driven Prion Protein mRNA Translation in H4-C Neuroglioblastoma Cells. [Related pubchem assays: 1829 (Project Summary), 1814 (Primary HTS)]; type: functional
[4] = inhibitors of intracellular T. cruzi replication, confirmation, NIH3T3 host cells, beta-gal luminescence (AID 2044); type: functional, cell-based;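 further: intracellular parasites grown in NIH/3T3 mouse fibroblasts as host cells; luminescent beta-galactosidase reporter signal from transgenic T. cruzi replicating inside host cells; inhibitors lower the luminescence signal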
[5] = Luminescence Cell-Based Dose Confirmation HTS to Identify Activators of 5'UTR Stem-Loop Driven Alpha-Synuclein mRNA Translation in H4 Neuroglioblastoma Cells. [Related pubchem assays: 1829 (Project Summary), 1814 (Primary HTS)]; type: functional
[6] = Luminescence Cell-Based Dose Response to Identify Activators of Luciferase Translation or Activity in H4-C Neuroglioblastoma Cells. [Related pubchem assays: 1829 (Project Summary), 1814 (Primary HTS)]; type: functional
H4 = test: Luminescence Cell-Based Dose Response HTS to Identify Activators of 5'UTR Stem-Loop Driven Prion Protein mRNA Translation in H4 Neuroglioblastoma Cells. [Related pubchem assays: 1829 (Project Summary), 1814 (Primary HTS)]; type: functional; conditions: Homo sapiens
[7] = Luminescence Cell-Based Dose Response HTS to Identify Activators of Luciferase Translation or Activity in H4 […] Cells. [Related pubchem assays: 1829 (Project Summary), 1814 (Primary HTS)]; type: functional
[8] = Luminescence Cell-Based Dose Confirmation to Identify Activators of 5'UTR Stem-Loop Driven Alpha-Synuclein mRNA Translation in H4 Neuroglioblastoma Cells. [Related pubchem assays: 1829 (Project Summary), 1814 (Primary HTS)]; type: functional
[9] = HEp-2 cell cytotoxicity, dose response, cytotoxicity control for RSV inhibitor project, HTS (AID 2410); type: functional; conditions: human respiratory syncytial virus
[10] = inhibitors of Vif binding to APOBEC3G peptide, primary screen, biochemical, TR-FRET, GST-Vif 1-94, biotin-A3G peptide, dose response retest (AID 1117319); type: functional;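 further: TR-FRET signal of purified GST-Vif binding a biotinylated A3G peptide; inhibitors lower the FRET signal by blocking Vif and A3G binding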
[11] = PAX5 activity inhibitors, dose response, selectivity assay for PAX8 inhibitor project, cell-based, plate reader, dry powder samples (AID 743047); type: functional;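 further: HEK293 cells carrying a Pax5 driven CD19 promoter luciferase reporter; potency of inhibitors that lower reporter luminescence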
[12] = NIH:OVCAR-3 ovarian cancer cell cytotoxicity, dose response, PAX8 inhibitor project, plate reader, dry powder samples (AID 743044); type: functional, cell-based
[13] = PAX2 cell-based inhibition, dose response, selectivity assay for PAX8 inhibitor project, plate reader, dry powder samples (AID 743048); type: functional;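 further: HEK293 cells carrying a WT1 promoter luciferase reporter driven by expressed Pax2; potency is for inhibition of Pax2 driven reporter signal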
[14] = cytotoxicity dependent on PAX8, dose response, cell-based, plate reader, dry powder (AID 743049); type: functional
[15] = cytotoxicity in OV-90 ovarian cancer cells, dose response, PAX8 inhibitor project, cell-based, plate reader, dry powder, SA8 (AID 743149); type: functional
[16] = cytotoxicity in COV434 cells, dose response, cytotoxicity control for PAX8 inhibitor project, cell-based, plate reader, dry powder, SA7 (AID 743145); type: functional
Paired box protein Pax-8 = Paired box protein Pax-8 (Homo sapiens, UniProt Q06710); test: inhibitors of PAX8-driven TPO luciferase reporter, dose response, RMG-I cells, cherry-pick (AID 687027); type: functional, cell-based;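 further: luciferase reporter driven by Pax8 target thyroperoxidase promoter measured by SteadyGlo luminescence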
[17] = target: T1, Corticotropin-releasing factor receptor 2/Corticotropin-releasing factor-binding protein; test: Dose Response confirmation of uHTS hits for small molecule antagonists of the CRF-binding protein and CRF-R2 receptor complex.; type: functional; conditions: read-out: IC50_Mean
[18] = target: T3, RNA-binding protein pos-1 (Caenorhabditis elegans, UniProt G5EF15); test: inhibitors of POS-1/mex-3 RNA binding, dose response, biochemical, fluorescence polarization (AID 1964);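 further: purified POS-1 fused to maltose binding protein made in E. coli; potency of compounds blocking POS-1 binding to fluorescent RNA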
T3 sequence (G5EF15 whole entry): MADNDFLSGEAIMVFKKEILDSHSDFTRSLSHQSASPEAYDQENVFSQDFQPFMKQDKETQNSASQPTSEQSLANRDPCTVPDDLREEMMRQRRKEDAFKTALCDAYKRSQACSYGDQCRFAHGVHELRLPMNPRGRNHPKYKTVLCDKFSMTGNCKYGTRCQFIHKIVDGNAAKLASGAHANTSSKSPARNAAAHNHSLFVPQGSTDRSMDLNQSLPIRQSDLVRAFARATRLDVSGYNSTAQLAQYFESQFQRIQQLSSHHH

[19] = Luminescence-based cell-based high throughput dose response assay to identify activators of the DAF-12 from the parasite S. stercoralis (ssDAF-12).; type: functional
[20] = target: T4, Zinc finger protein mex-5 (Caenorhabditis elegans, UniProt Q9XUB2); test: MEX-5/TCR-2 RNA interaction inhibitors, dose response, biochemical, C. elegans, fluorescence polarization (AID 1960)
T4 sequence (Q9XUB2 whole entry): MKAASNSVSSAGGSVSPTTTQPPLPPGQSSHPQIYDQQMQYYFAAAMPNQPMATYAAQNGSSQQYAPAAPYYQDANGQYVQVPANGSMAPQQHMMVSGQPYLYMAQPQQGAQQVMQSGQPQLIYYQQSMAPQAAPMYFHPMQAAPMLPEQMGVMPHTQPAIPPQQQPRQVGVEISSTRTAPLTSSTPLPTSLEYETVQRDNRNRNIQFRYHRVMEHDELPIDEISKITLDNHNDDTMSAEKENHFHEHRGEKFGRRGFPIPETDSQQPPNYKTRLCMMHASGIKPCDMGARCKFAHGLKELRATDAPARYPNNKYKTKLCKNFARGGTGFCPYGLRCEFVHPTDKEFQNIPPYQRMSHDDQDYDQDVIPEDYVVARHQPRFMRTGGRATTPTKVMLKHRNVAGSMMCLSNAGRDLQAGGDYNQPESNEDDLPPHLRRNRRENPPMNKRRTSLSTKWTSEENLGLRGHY

[21] = target: T5, Oxysterols receptor LXR-beta (Homo sapiens, UniProt P55055); test: LXR agonists, Gal4 luciferase reporter, dose response, counter-screen for ssDAF-12 agonist project, cell-based, luminescence, HEK293, S. stercoralis campaign (AID 720737); type: functional; conditions: read-out: IC50 (the source's name)
T5 sequence (P55055 whole entry): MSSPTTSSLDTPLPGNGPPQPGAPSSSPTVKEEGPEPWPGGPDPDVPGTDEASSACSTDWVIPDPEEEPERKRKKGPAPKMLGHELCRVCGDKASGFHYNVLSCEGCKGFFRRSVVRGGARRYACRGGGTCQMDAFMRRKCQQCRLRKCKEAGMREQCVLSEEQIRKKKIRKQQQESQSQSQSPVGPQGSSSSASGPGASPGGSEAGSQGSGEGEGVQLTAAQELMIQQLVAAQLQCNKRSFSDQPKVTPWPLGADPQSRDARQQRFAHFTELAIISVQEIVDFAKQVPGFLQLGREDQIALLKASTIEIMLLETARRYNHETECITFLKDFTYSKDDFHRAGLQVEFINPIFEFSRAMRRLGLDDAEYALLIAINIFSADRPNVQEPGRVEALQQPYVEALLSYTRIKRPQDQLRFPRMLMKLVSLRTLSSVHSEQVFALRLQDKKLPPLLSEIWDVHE

[22] = inhibitors of PGC1a acetylation in cells, dose response, cell-based, cherry-picked samples (AID 720514); type: functional;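 further: potency may reflect raised or lowered acetylation signal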

Sequence of Kallikrein-7 (P49862 whole entry): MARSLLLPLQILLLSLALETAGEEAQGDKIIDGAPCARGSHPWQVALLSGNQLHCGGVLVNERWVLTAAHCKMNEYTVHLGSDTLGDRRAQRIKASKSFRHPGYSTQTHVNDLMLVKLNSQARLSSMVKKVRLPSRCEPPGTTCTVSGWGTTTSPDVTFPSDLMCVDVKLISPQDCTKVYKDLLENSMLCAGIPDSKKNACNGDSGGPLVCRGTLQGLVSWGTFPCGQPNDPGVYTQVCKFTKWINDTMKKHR
Sequence of Paired box protein Pax-8 (Q06710 whole entry): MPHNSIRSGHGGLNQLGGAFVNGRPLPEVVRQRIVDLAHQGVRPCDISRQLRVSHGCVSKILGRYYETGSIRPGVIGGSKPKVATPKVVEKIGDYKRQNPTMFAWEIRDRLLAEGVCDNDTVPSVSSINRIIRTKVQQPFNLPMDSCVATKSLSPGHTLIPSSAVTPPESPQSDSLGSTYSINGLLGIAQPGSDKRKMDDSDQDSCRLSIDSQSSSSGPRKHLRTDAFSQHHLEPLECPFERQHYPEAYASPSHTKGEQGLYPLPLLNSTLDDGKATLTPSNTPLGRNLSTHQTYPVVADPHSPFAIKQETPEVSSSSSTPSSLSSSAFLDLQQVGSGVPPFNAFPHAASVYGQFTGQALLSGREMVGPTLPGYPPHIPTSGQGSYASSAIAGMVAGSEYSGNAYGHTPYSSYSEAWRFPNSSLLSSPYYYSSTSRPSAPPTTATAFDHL

## CCN1CCSc2ccc(C(=O)NCc3ccccc3F)cc21
[1]
  EC50: > 53 µM (inactive)
Kallikrein-7
  EC50: > 69.5 µM (inactive)

## O=C(Nc1ccccc1C(=O)NC(Cc1c[nH]c2ccccc12)C(=O)O)c1ccco1 (stereo not given)
Protein Tat
  IC50: > 100 µM (active)

## CCC(=O)Nc1ccc(C(=O)OCc2ccccc2Cl)cc1
[2]
  EC50: > 60 µM (not active)
[3]
  EC50: 8.13 µM (active)
[4]
  EC50: 0.815 µM (active)
[5]
  EC50: < 0.1 µM (active)
[6]
  EC50: 0.614 µM (active)
H4
  EC50: 11.7 µM (active)
[7]
  EC50: 37.7 µM (active)
[8]
  EC50: 0.976 µM (active)

## CCN(CC)c1ccc2c(C)c(CO)c(=O)oc2c1
[9]
  CC50: > 50 µM (active)
Kallikrein-7
  EC50: 6.34 µM (active)

## Cc1ccn2cc(CNS(=O)(=O)c3ccc(Cl)s3)nc2c1
[10]
  IC50: > 100 µM (active)
Protein Tat
  IC50: > 100 µM (active)

## O=C(/C=C/c1ccco1)NC1=NCCS1
[3]
  EC50: 0.519 µM (active)
[5]
  EC50: < 0.1 µM (active)
[6]
  EC50: 0.323 µM (active)
H4
  EC50: < 0.1 µM (active)
[7]
  EC50: 0.484 µM (active)
[8]
  EC50: 0.428 µM (active)

## Cc1ccc(S(=O)(=O)Nc2ccc3c(c2)nc(CCN2CCCC2)n3C)cc1
[11]
  AC50: > 100 µM (inactive)
[12]
  AC50: 34.1 µM (active)
[13]
  AC50: > 100 µM (inactive)
[14]
  AC50: 50.6 µM (active)
[15]
  AC50: 45.2 µM (active)
[16]
  AC50: 26.4 µM (active)
Paired box protein Pax-8
  AC50: 5.89 µM (active)

## CCCn1nc(C(=O)Nc2ccc3nc(C)sc3c2)c2ccccc2c1=O
[17]
  IC50: > 47.1 µM (inactive)
[18]
  EC50: > 300 µM (not active)
[19]
  IC50: > 67.5 µM (inactive)
[1]
  EC50: > 53 µM (inactive)
[20]
  EC50: > 300 µM (not active)
[21]
  EC50: > 67.5 µM (inactive)

## CC(C)CC#Cc1ccc([C@H]2[C@H](CO)N3C(=O)CN(C(=O)Nc4cc(F)ccc4F)C[C@@H]23)cc1
[22]
  AC50: 27.6 µM (active)
